Columns and labels:
[1] = The drug is tested on Bacteroides coprophilus strain: DSM18228 for biotransformation. The drug concentrations were measured before and after a 12-h incubation by liquid-chromatography-coupled mass spectrometry (LC–MS); conditions: 2 µM
[2] = The drug is tested on Eubacterium ventriosum strain: ATCC27560 for biotransformation. The drug concentrations were measured before and after a 12-h incubation by liquid-chromatography-coupled mass spectrometry (LC–MS); type: ADME; set-up: dose 2 uM, timepoint 0 vs 12 hours; conditions: 2 µM
[3] = The drug is tested on Eubacterium hallii strain: DSM3353 for biotransformation. The drug concentrations were measured before and after a 12-h incubation by liquid-chromatography-coupled mass spectrometry (LC–MS); conditions: anaerobutyricum hallii, 2 µM
[4] = The drug is tested on Bifidobacterium breve strain: DSM20213 for biotransformation. The drug concentrations were measured before and after a 12-h incubation by liquid-chromatography-coupled mass spectrometry (LC–MS); conditions: 2 µM
[5] = The drug is tested on Anaerococcus hydrogenalis strain: DSM7454 for biotransformation. The drug concentrations were measured before and after a 12-h incubation by liquid-chromatography-coupled mass spectrometry (LC–MS); conditions: 2 µM
[6] = The drug is tested on Alistipes indistinctus strain: DSM22520 for biotransformation. The drug concentrations were measured before and after a 12-h incubation by liquid-chromatography-coupled mass spectrometry (LC–MS); conditions: 2 µM
[7] = The drug is tested on Bacteroides vulgatus strain: ATCC8482 for biotransformation. The drug concentrations were measured before and after a 12-h incubation by liquid-chromatography-coupled mass spectrometry (LC–MS); conditions: phocaeicola vulgatus, 2 µM
[8] = The drug is tested on Anaerotruncus colihominis strain: DSM17241 for biotransformation. The drug concentrations were measured before and after a 12-h incubation by liquid-chromatography-coupled mass spectrometry (LC–MS); conditions: 2 µM
[9] = bacteroides fragilis, 12 h, 2 µM
Description: The drug is tested on Bacteroides fragilis strain: 3397 (T10) for biotransformation. The drug concentrations were measured before and after a 12-h incubation by liquid-chromatography-coupled mass spectrometry (LC–MS)

[10] = The drug is tested on Ruminococcus gnavus strain: ATCC29149 for biotransformation. The drug concentrations were measured before and after a 12-h incubation by liquid-chromatography-coupled mass spectrometry (LC–MS); conditions: mediterraneibacter gnavus, 2 µM
[11] = The drug is tested on Bacteroides finegoldii strain: DSM17565 for biotransformation. The drug concentrations were measured before and after a 12-h incubation by liquid-chromatography-coupled mass spectrometry (LC–MS); conditions: 2 µM
[12] = bacteroides stercoris, 12 h, 2 µM
Description: The drug is tested on Bacteroides stercoris strain: ATCC43183 for biotransformation. The drug concentrations were measured before and after a 12-h incubation by liquid-chromatography-coupled mass spectrometry (LC–MS)

[13] = The drug is tested on Clostridium scindens strain: ATCC35704 for biotransformation. The drug concentrations were measured before and after a 12-h incubation by liquid-chromatography-coupled mass spectrometry (LC–MS); conditions: 2 µM
[14] = The drug is tested on Enterobacter cancerogenus strain: ATCC35316 for biotransformation. The drug concentrations were measured before and after a 12-h incubation by liquid-chromatography-coupled mass spectrometry (LC–MS); conditions: 2 µM
[15] = bacteroides thetaiotaomicron, 12 h, 2 µM
Description: The drug is tested on Bacteroides thetaiotaomicron strain: 3731 for biotransformation. The drug concentrations were measured before and after a 12-h incubation by liquid-chromatography-coupled mass spectrometry (LC–MS)

[16] = bacteroides fragilis, 12 h, 2 µM; remark: listed apart in the source
Description: The drug is tested on Bacteroides fragilis strain: DS-208 for biotransformation. The drug concentrations were measured before and after a 12-h incubation by liquid-chromatography-coupled mass spectrometry (LC–MS)

[17] = The drug is tested on Ruminococcus lactaris strain: ATCC29176 for biotransformation. The drug concentrations were measured before and after a 12-h incubation by liquid-chromatography-coupled mass spectrometry (LC–MS); conditions: 2 µM
[18] = parabacteroides johnsonii, 12 h, 2 µM
Description: The drug is tested on Parabacteroides johnsonii strain: DSM18315 for biotransformation. The drug concentrations were measured before and after a 12-h incubation by liquid-chromatography-coupled mass spectrometry (LC–MS)

[19] = parabacteroides distasonis, 12 h, 2 µM
Description: The drug is tested on Parabacteroides distasonis strain: ATCC8503 for biotransformation. The drug concentrations were measured before and after a 12-h incubation by liquid-chromatography-coupled mass spectrometry (LC–MS)

Bacterial Biotransformation [1]	Bacterial Biotransformation [2]	Bacterial Biotransformation [3]	Bacterial Biotransformation [4]	Bacterial Biotransformation [5]	Bacterial Biotransformation [6]	Bacterial Biotransformation [7]	Bacterial Biotransformation [8]	Bacterial Biotransformation [9]	Bacterial Biotransformation [10]	Bacterial Biotransformation [11]	Bacterial Biotransformation [12]	Bacterial Biotransformation [13]	Bacterial Biotransformation [15]	Bacterial Biotransformation [16]	Bacterial Biotransformation [17]	Bacterial Biotransformation [18]	Bacterial Biotransformation [19]	SMILES	Bacterial Biotransformation [14]
Compound NOT metabolized	Compound NOT metabolized	Compound NOT metabolized	Compound NOT metabolized	Compound NOT metabolized	–	–	Compound NOT metabolized	Compound NOT metabolized	Compound NOT metabolized	Compound NOT metabolized	Compound NOT metabolized	Compound NOT metabolized	Compound NOT metabolized	Compound NOT metabolized	Compound NOT metabolized	–	–	Nc1nnc(-c2cccc(Cl)c2Cl)c(N)n1 [LAMOTRIGINE]	Compound NOT metabolized
Compound NOT metabolized	Compound NOT metabolized	Compound NOT metabolized	Compound NOT metabolized	Compound NOT metabolized	Compound NOT metabolized	Compound metabolized	Compound NOT metabolized	Compound NOT metabolized	Compound NOT metabolized	Compound NOT metabolized	Compound NOT metabolized	Compound NOT metabolized	Compound NOT metabolized	Compound metabolized	–	Compound metabolized	Compound NOT metabolized	OCCN(CCO)c1nc(N2CCCCC2)c2nc(N(CCO)CCO)nc(N3CCCCC3)c2n1 [DIPYRIDAMOLE]	–
Compound NOT metabolized	–	Compound NOT metabolized	Compound NOT metabolized	Compound NOT metabolized	Compound NOT metabolized	Compound NOT metabolized	–	Compound NOT metabolized	Compound NOT metabolized	–	Compound NOT metabolized	Compound NOT metabolized	Compound NOT metabolized	Compound NOT metabolized	Compound NOT metabolized	Compound NOT metabolized	Compound NOT metabolized	CC1Cc2ccccc2N1NC(=O)c1ccc(Cl)c(S(N)(=O)=O)c1 (stereo not given) [INDAPAMIDE]	–
Compound NOT metabolized	Compound NOT metabolized	Compound NOT metabolized	Compound NOT metabolized	Compound NOT metabolized	Compound NOT metabolized	Compound NOT metabolized	Compound NOT metabolized	Compound NOT metabolized	Compound NOT metabolized	Compound NOT metabolized	Compound NOT metabolized	Compound NOT metabolized	Compound NOT metabolized	Compound NOT metabolized	Compound NOT metabolized	–	–	O=C(Nc1ccccc1)OCC(CN1CCCCC1)OC(=O)Nc1ccccc1 (stereo not given) [DIPERODON]	–
–	Compound NOT metabolized	Compound NOT metabolized	Compound NOT metabolized	Compound NOT metabolized	Compound metabolized	Compound metabolized	Compound NOT metabolized	Compound metabolized	Compound NOT metabolized	Compound metabolized	Compound NOT metabolized	Compound NOT metabolized	Compound metabolized	–	–	Compound metabolized	Compound metabolized	N#Cc1ccc2c(c1)N(CCCN1CCC(O)CC1)c1ccccc1S2 [PERICIAZINE]	–

Continued, molecule first:

SMILES	Bacterial Biotransformation [1]	Bacterial Biotransformation [2]	Bacterial Biotransformation [3]	Bacterial Biotransformation [4]	Bacterial Biotransformation [5]	Bacterial Biotransformation [6]	Bacterial Biotransformation [7]	Bacterial Biotransformation [8]	Bacterial Biotransformation [9]	Bacterial Biotransformation [10]	Bacterial Biotransformation [11]	Bacterial Biotransformation [12]	Bacterial Biotransformation [13]	Bacterial Biotransformation [15]	Bacterial Biotransformation [16]	Bacterial Biotransformation [17]	Bacterial Biotransformation [18]	Bacterial Biotransformation [19]	Bacterial Biotransformation [14]
CN1[C@@H]2CC[C@H]1C[C@@H](OC(=O)C(CO)c1ccccc1)C2 (stereo not given in full) [ATROPINE]	Compound NOT metabolized	Compound NOT metabolized	Compound NOT metabolized	Compound NOT metabolized	Compound NOT metabolized	Compound NOT metabolized	Compound NOT metabolized	Compound NOT metabolized	Compound NOT metabolized	Compound NOT metabolized	Compound NOT metabolized	Compound NOT metabolized	–	–	–	–	–	–	–
CN1CCC(OC(c2ccccc2)c2ccccc2)CC1	Compound NOT metabolized	Compound NOT metabolized	Compound NOT metabolized	Compound NOT metabolized	Compound NOT metabolized	Compound NOT metabolized	Compound NOT metabolized	Compound NOT metabolized	Compound NOT metabolized	Compound NOT metabolized	Compound NOT metabolized	Compound NOT metabolized	Compound NOT metabolized	Compound NOT metabolized	Compound NOT metabolized	Compound NOT metabolized	Compound NOT metabolized	–	–
COc1ccc(Cc2nccc3cc(OC)c(OC)cc23)cc1OC [PAPAVERINE]	Compound NOT metabolized	Compound NOT metabolized	Compound NOT metabolized	Compound NOT metabolized	Compound NOT metabolized	–	–	Compound NOT metabolized	Compound NOT metabolized	Compound NOT metabolized	Compound NOT metabolized	Compound NOT metabolized	Compound NOT metabolized	Compound NOT metabolized	Compound NOT metabolized	Compound NOT metabolized	–	–	Compound NOT metabolized
Cc1cc2c(s1)Nc1ccccc1N=C2N1CCN(C)CC1 [OLANZAPINE]	Compound metabolized	Compound NOT metabolized	Compound NOT metabolized	Compound NOT metabolized	Compound NOT metabolized	Compound NOT metabolized	Compound NOT metabolized	Compound NOT metabolized	Compound metabolized	Compound NOT metabolized	Compound NOT metabolized	Compound NOT metabolized	Compound NOT metabolized	Compound NOT metabolized	Compound NOT metabolized	Compound NOT metabolized	Compound NOT metabolized	Compound NOT metabolized	–
CN1CCc2c(c3ccccc3n2Cc2ccccc2)C1.CN1CCc2c(c3ccccc3n2Cc2ccccc2)C1.O=S(=O)(O)c1cccc2c(S(=O)(=O)O)cccc12	Compound NOT metabolized	Compound NOT metabolized	Compound NOT metabolized	Compound NOT metabolized	Compound NOT metabolized	–	Compound NOT metabolized	Compound NOT metabolized	Compound NOT metabolized	Compound NOT metabolized	Compound NOT metabolized	Compound NOT metabolized	Compound NOT metabolized	Compound NOT metabolized	Compound NOT metabolized	–	Compound NOT metabolized	–	–
